Earlier results on two substances are cited in US20050186288A1, “Compositions and methods for the prophylaxis and treatment of aphthous ulcers and herpes simplex lesions” (Chiou Consulting Inc., priority 2002, published 2005).

For the series, the system named is herpes infection (wound or ulcer). Conditions: salt alone.

For the substance magnesium pentosan polysulfate, the “effect in treating herpes infection (wound or ulcer)” value is “ineffective”. Regarding zinc pentosan polysulfate, the “effect in treating herpes infection (wound or ulcer)” value is on record as “ineffective”.
